Data: patent US20070078174A1 (priority 2005, published 2007)
Where a name gives a salt, the structure may show the parent alone.

Tests used:
[1] = cited from earlier work
[2] = clinical; conditions: male, human, plasma
Method: The study was a randomized open label study with a four period comparative crossover study. […] The blood samples were taken at “0” hour (pre-dosing), 10 min, 20 min, 40 min, 1.0.
The study contained twelve (12) male subjects aged 18-55 years. […] However the available pharmacokinetic data from all twelve (12) subjects was included in the statistical analysis, as required by the study protocol.
The study administered the single dosages in four different forms.

[3] = clinical; conditions: human, plasma, other: sublingual and oral
Method: Two groups were randomized and there was a one week washout period between administrations. The volunteers were in the fasted state when the drugs were administered. […] The oral formulation was administered with a glass of water. […] The samples were blinded from the analysts. […]

half-life [2]: 90 to 102 min
half-life [3]: 90 to 102 min
SMILES: Clc1ccc2nsnc2c1NC1=NCCN1 [tizanidine, Tizanidine hydrochloride]
absolute bioavailability ([1]; administered orally, extensive hepatic first pass metabolism): about 40%
bioavailability ([1]; lowered by first-pass hepatic metabolism): 22-40%
terminal half life ([1]; reported): 2.5 h
